Inconclusive results are not listed. Calls of active or inactive are those of the source.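 Rule for the calls: active = compounds lowering the signal whose fitted AC50 is no more than twice their top tested dose; inconclusive = flat curve with activity from -70 to -30%, or bad fit; inactive = the rest.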
Tested on: not listed separately
Assay: miR-122 activators in Huh7 reporter cells, dose response, miR-122 modulator project, cell-based, psiCHECK-miR122, dry powder (AID 743399)
Conditions: Huh7 psiCHECK-miR122 Renilla luciferase reporter, 48 h; at 35 µM (top of the series)

SMILES | activity change, negative = miR122 activation
C/C=C/c1cnc2c(c1)C(=O)N([C@@H](C)CO)C[C@H](C)[C@H](CN(C)S(=O)(=O)c1ccc(OC)cc1)O2 | 26.1% (inactive)
CCOC(=O)N1CCC(NC(=O)c2ccc3c(c2)sc2nc(-c4ccccc4)cn23)CC1 | -23.1% (inactive)
CO[C@@H]1CN(C)C(=O)c2cc(NC(=O)c3ccc4c(c3)OCO4)ccc2OC[C@H](C)NC[C@@H]1C | -21.7% (inactive)
O=C(Nc1ccc(-c2nc3ccccc3o2)cc1)c1cc(-n2cnnc2)ccc1Cl | 0% (inactive)
CN1C(=O)c2cc(NC(=O)c3cccc(F)c3)ccc2OC[C@@H]2O[C@H](CC(=O)O)CC[C@@H]21 | -15.2% (inactive)
O=S(=O)(NCCc1ccncc1)c1ccccc1 | 515% (inactive)
O=C(c1ccc(CN2CCOCC2)cc1)N1CCc2ccccc21 | 15.4% (inactive)
CN1C(=O)c2cc(NC(=O)c3cccc(F)c3)ccc2OC[C@H]2O[C@@H](CC(=O)O)CC[C@H]21 | 52.2% (inactive)
CN1C(=O)c2cc(NC(=O)c3cccc(F)c3)ccc2OC[C@H]2O[C@H](CC(=O)O)CC[C@@H]21 | -21.7% (inactive)
CCCCN(CCCC)C(=O)CN(C)S(=O)(=O)c1ccc2c(c1)n(C)c(=O)c(=O)n2C | 46.2% (inactive)
COc1cccc(C(=O)Nc2ccc3c(c2)C(=O)N(C)C[C@@H](OC)[C@@H](C)CN[C@@H](C)CO3)c1 | 4.35% (inactive)
C[C@H]1CN([C@@H](C)CO)C(=O)c2cc(-c3ccc(C#N)cc3)cnc2O[C@H]1CN(C)Cc1cncnc1 | -10.9% (inactive)
Cn1c(=O)c(=O)n(C)c2cc(S(=O)(=O)N3CCOCC3)ccc21 | 0% (inactive)
CN1C(=O)c2cc(NC(=O)c3cccc(F)c3)ccc2OC[C@@H]2O[C@@H](CC(=O)O)CC[C@@H]21 | -10.9% (inactive)
Cc1cc(C(C)(C)C)cc(S(=O)(=O)N2CCOCC2)c1C | 92.3% (inactive)
COCC(=O)N(C)C[C@@H]1Oc2ncc(-c3ccc(C#N)cc3)cc2C(=O)N([C@@H](C)CO)C[C@@H]1C | -4.35% (inactive)
CO[C@@H]1CN(C)C(=O)c2cc(NS(=O)(=O)c3ccc(Oc4ccccc4)cc3)ccc2OC[C@H](C)NC[C@@H]1C | 8.7% (inactive)
CN1C(=O)c2cc(NC(=O)c3cccc(F)c3)ccc2OC[C@H]2O[C@@H](CC(=O)O)CC[C@@H]21 | 20.2% (inactive)
O=C(CN=C1NS(=O)(=O)c2ccccc21)Nc1ccccc1N1CCCCCC1 | -23.1% (inactive)
C[C@H]1CN([C@@H](C)CO)C(=O)c2cc(-c3ccc(C#N)cc3)cnc2O[C@H]1CN(C)C(=O)c1ccccc1 | 10.9% (inactive)
O=C(NCc1ccccc1Cl)c1ccc(CNc2c(NC3CCCCC3)c(=O)c2=O)cc1 | -30.8% (inactive)
CCOC(=O)N1CCC(NC(=O)c2ccc3nc(N4CCC(C)CC4)sc3c2)CC1 | 53.8% (inactive)
CN1C(=O)c2cc(NC(=O)c3cccc(F)c3)ccc2OC[C@H]2O[C@H](CC(=O)O)CC[C@H]21 | -17.4% (inactive)
CN1C(=O)c2cc(NC(=O)c3cccc(F)c3)ccc2OC[C@@H]2O[C@H](CC(=O)O)CC[C@H]21 | -41.3% (inactive)

Tested on: Huh7 psiCHECK-miR122 Renilla luciferase reporter, 48 h
Assay: as above
Conditions: not given

SMILES | AC50
CNC[C@@H]1Oc2cc(C#CC3CCCCC3)ccc2S(=O)(=O)N([C@@H](C)CO)C[C@@H]1C | 14.4 µM
O=C(CNCCC1=CCCCC1)Nc1ccccc1N1CCCCCC1 | 16.3 µM
C[C@H]1CN([C@@H](C)CO)C(=O)c2cc(C#Cc3ccccc3F)cnc2O[C@H]1CN(C)C(=O)C1CCCCC1 | 20.6 µM
COCC(=O)N(C)C[C@H]1Oc2cc(C#Cc3cccnc3)ccc2S(=O)(=O)N([C@@H](C)CO)C[C@H]1C | 0.354 µM
C[C@@H]1CN([C@H](C)CO)S(=O)(=O)c2ccc(/C=C/c3ccccc3)cc2O[C@@H]1CN(C)C(=O)c1cccnc1 | 7.29 µM
COCC(=O)N(C)C[C@H]1Oc2cc(-c3ccc(C#N)cc3)ccc2S(=O)(=O)N([C@H](C)CO)C[C@H]1C | 0.324 µM
COCC(=O)N(C)C[C@H]1Oc2cc(-c3ccccc3F)ccc2S(=O)(=O)N([C@@H](C)CO)C[C@H]1C | 0.278 µM
C[C@@H]1CN([C@H](C)CO)S(=O)(=O)c2ccc(C#Cc3ccncc3)cc2O[C@@H]1CN(C)C(=O)C1CCOCC1 | 0.896 µM
COc1cccc(-c2ccc3c(c2)O[C@H](CN(C)C(=O)C2CCOCC2)[C@H](C)CN([C@@H](C)CO)S3(=O)=O)c1 | 4.07 µM
Nc1ccc(Oc2ccc(Cl)cc2)cc1 | 3.4 µM
COCC(=O)N(C)C[C@H]1Oc2cc(C#Cc3cccnc3)ccc2S(=O)(=O)N([C@H](C)CO)C[C@H]1C | < 0.26 µM
CCCC#Cc1ccc2c(c1)O[C@H](CN(C)C(=O)c1ccncc1)[C@H](C)CN([C@@H](C)CO)S2(=O)=O | 12.8 µM
C[C@H]1CN([C@@H](C)CO)C(=O)c2cc(-c3ccc(C#N)cc3)cnc2O[C@H]1CN(C)C(=O)Nc1ccc(C(F)(F)F)cc1 | 6.96 µM
C[C@H]1CN([C@@H](C)CO)S(=O)(=O)c2ccc(C#Cc3ccncc3)cc2O[C@@H]1CN(C)C(=O)C1CCOCC1 | 9.44 µM
Cc1cc(C(C)(C)C)cc(S(=O)(=O)NCCc2ccncc2)c1C | 2.34 µM
COCC(=O)N(C)C[C@H]1Oc2cc(-c3ccccc3F)ccc2S(=O)(=O)N([C@H](C)CO)C[C@H]1C | < 0.26 µM

SMILES | AC50
C[C@H]1CN([C@@H](C)CO)S(=O)(=O)c2ccc(C#Cc3ccncc3)cc2O[C@H]1CN(C)C(=O)C1CCOCC1 | 20.7 µM
C[C@@H]1CN([C@H](C)CO)S(=O)(=O)c2ccc(C#Cc3ccncc3)cc2O[C@H]1CN(C)C(=O)C1CCOCC1 | 0.496 µM
Nc1ccc(Oc2ccc(Br)cc2)cc1 | 1.09 µM
CO[C@@H]1CN(C)C(=O)c2cc(NC(=O)c3cccc(Oc4ccccc4)c3)ccc2OC[C@H](C)NC[C@@H]1C | 7.62 µM
CN1C(=O)c2cc(NC(=O)c3cccc(F)c3)ccc2OC[C@@H]2O[C@@H](CC(=O)O)CC[C@H]21 | > 60 µM (inactive)
CCCC#Cc1ccc2c(c1)O[C@H](CN(C)C(=O)COC)[C@H](C)CN([C@@H](C)CO)S2(=O)=O | 1.1 µM
Cc1cccc(NC(=O)Nc2ccc3c(c2)C(=O)N(C)[C@@H]2CC[C@H](CC(=O)NCc4ccccc4Cl)O[C@H]2CO3)c1 | 22.2 µM
CCn1cc(C(=O)O)c(=O)c2cc(F)c(N3CCNCC3)nc21 | > 70 µM (inactive)
CN(C)CCN1C(=O)c2cccc3cc(N)cc(c23)C1=O | 10.7 µM
O=C(c1ccc(CNc2c(NC3CCCCC3)c(=O)c2=O)cc1)N1CCc2ccccc21 | 1.18 µM
COCC(=O)N(C)C[C@H]1Oc2cc(-c3ccc(C#N)cc3)ccc2S(=O)(=O)N([C@@H](C)CO)C[C@H]1C | 0.341 µM
C[C@@H]1CN([C@@H](C)CO)S(=O)(=O)c2ccc(C#Cc3ccncc3)cc2O[C@@H]1CN(C)C(=O)C1CCOCC1 | 0.838 µM
OCc1ccc(-c2nn(Cc3ccccc3)c3ccccc23)o1 | 0.449 µM
COc1ccc(S(=O)(=O)N(C)C[C@@H]2Oc3ncc(/C=C/c4ccccc4)cc3C(=O)N([C@@H](C)CO)C[C@@H]2C)cc1 | 22.1 µM
C[C@H](CO)N1C[C@H](C)[C@@H](CN(C)C(=O)C2CCOCC2)Oc2cc(C#Cc3ccncc3)ccc2S1(=O)=O | 5.46 µM
